According to patent US11510932B2, “Prophylactic and therapeutic treatment of alzheimer's disease using phytic acid and phytate to reduce amyloid beta plaque and tau protein” (priority 2009, dated 2022):

Assays:
[1] = test system: NGF-differentiated PC12 cells; settings: 10 μM; cited from earlier work
MC65 cells [2] = assay: APP CTF-induced neurotoxicity (cell viability) in MC65 cells; settings: for attenuation of APP CTF-induced neurotoxicity (active/inactive): in vitro challenge test
[3] = test system: transgenic mouse model of Alzheimer's Disease; settings: cited from earlier work
amyloid-B peptide (AB) = settings: transgenic Alzheimer Disease mouse studies; cited from earlier work
MC65 cells [4] = assay: Oxidative stress associated with APP CTF expression, hydrogen peroxide in cell media; format: cell-based, human; settings: 100 μM
Description: In vitro studies were conducted in MC65 cells, an established human neuroblastoma line that conditionally expresses the first 17 amino-terminal residues and the 99 carboxy-terminal residues of amyloid precursor protein (APP CTF). Detectable APP CTF expression occurs within 3-4 h of tetracycline withdrawal, appearance of aggregates and initial losses of culture viability occurs at about 2 days and near complete death occurs by approximately 3 days.

[5] = test system: Alzheimer's transgenic mice; assay: Toxicity and weight loss in treated Alzheimer's transgenic mice; format: in vivo; settings: 2% phytic acid in drinking water, about six months
Description: (§1) Applicant also submits Table 1 and FIGS. 4-6 showing data from in vivo testing of the subject matter compounds in Alzheimer's transgenic mice. These Alzheimer's transgenic mice are genetically altered to produce Abeta plaque, and were treated for about six months with compounds of the Applicant's invention. Namely, the drinking water was infused with phytic acid so that the final concentration of phytic acid in the drinking water was 2%.

Abeta plaque = Abeta plaque in brains of Alzheimer's transgenic mice versus control vehicle; format: in vivo; settings: 2% phytic acid, all three cases (FIGS. 4-6)
Description: as §1
After six months, the animals were put down for autopsy and necropsy so that Abeta plaque in the brains was assayed, separated and weighed.
FIGS. 4-6 are graphs comparing the tested compound in vivo with the control vehicle.

[6] = humans, ingestion of large doses; cited from earlier work

Compound	rescue from Ab-induced neurotoxicity [1]	attenuation of APP CTF-induced neurotoxicity (active/inactive) (MC65 cells [2])	prevention and reversal of Alzheimer's Disease [3]	aggregation of amyloid-B peptide (AB) (amyloid-B peptide (AB))	oxidative stress associated with APP CTF expression (hydrogen peroxide in the cell media) (MC65 cells [4])	toxicity in the treated group [5]	weight loss in the treated group [5]	Abeta plaque compared to the control vehicle (Abeta plaque)	physiological discomfort or symptoms of toxicological action [6]	EC50 (MC65 cells [2]; Homo sapiens, MC65, read-out: EC50 concentration, protection from APP CTF-induced death)	protection from cytotoxicity (MC65 cells [2]; MC65 cells, concentrations of 200 μM and higher)
O[C@H]1[C@H](O)[C@@H](O)[C@H](O)[C@@H](O)[C@H]1O [myo inositol, reference compound]	rescues	inactive	–	–	–	–	–	–	–	–	–
O[C@H]1[C@H](O)[C@@H](O)[C@H](O)[C@@H](O)[C@@H]1O [scyllo inositol]	rescues	inactive	prevent and reverse Alzheimer's Disease	inhibits and blocks the aggregation	–	–	–	–	–	–	–
O=P(O)(O)O[C@H]1[C@H](OP(=O)(O)O)[C@@H](OP(=O)(O)O)[C@H](OP(=O)(O)O)[C@@H](OP(=O)(O)O)[C@H]1OP(=O)(O)O [phytic acid, myo-inositol-hexakis (dihydrogen phosphate)]	–	active	–	–	suppressed oxidative stress	no toxicity	nor any significant weight loss	reduction in Abeta plaque	elicits no physiological discomfort or symptoms of any toxicological action	~100 µM	near complete protection
